US20250242043A1, “ANTIBODY-DRUG CONJUGATE COMPRISING ANTIBODY AGAINST HUMAN TROP2 AND USE THEREOF” (priority 2022, published 2025)
Square brackets hold non-standard residues; d marks the D form. Peptide text beside a SMILES is read from it. * marks the point of attachment. Dolaproine = CO[C@@H]([C@@H]1CCCN1)[C@@H](C)C(=O)O; Dil = CC[C@H](C)[C@H](NC)[C@@H](CC(=O)O)OC; X1 = C[C@@H](N*)[C@@H](O)c1ccccc1; NMeV = CN[C@H](C(=O)O)C(C)C

How the values were obtained:
Assay in all cases: In vitro cytotoxicity (cell proliferation inhibition), SRB dye or Cell titer glo
Type in all cases: cell-based, human
HT29 = conditions: HT29, 144 hours
Method: (§1) The cell proliferation inhibitory activity of the ADC produced according to <Example 2> and the drug alone included in the ADC against cancer cell lines were measured.
(§2) Specifically, human pancreatic cancer cell lines (BxPC-3, Capan-1, and PATU-8988s), breast cancer cell lines (JIMT-1 and MDA-MB-468), gastric cancer cell lines (NCI-N87, SNU-601, and SNU-620), colon cancer cell lines (HCT15, HT29, DLD-1, SW480, and COLO205), an ovarian cancer cell line (OVCAR-3), prostate cancer cell lines (PC-3 and LNCaP), and non-small cell lung cancer cell lines (NCI-H1781, HCC827, Calu-1, and Calu-3), which are commercially available as cancer cell lines, were used. MMAE as a drug alone included in the ADC prepared according to Example 3 and SG2057 (CAS #: 260417-62-7, MedKoo Biosciences) as a PBD dimer were used. 500 cells/well to 5,000 cells/well of each cancer cell line were seeded into a 96-well plate and cultured for 24 hours, and then each of ADC1, ADC2 and ADC3 produced according to Example 3 and the drugs MMAE and SG2057 alone were treated at a concentration of […] to 100 nM (5-fold serial dilution). After 144 hours, the number of living cells was quantified using a sulforhodamine B (SRB) dye or Cell titer glo.

NCI-H1781 = conditions: NCI-H1781, 144 hours
Method: as §1, §2

SNU-601 = conditions: SNU-601, 144 hours
Method: as §1, §2

SW480 = conditions: SW480, 144 hours
Method: as §1, §2

LNCaP = conditions: 144 hours
Method: as §1, §2

Patu8988S = conditions: 144 hours
Method: as §1, §2

MDA-MB-468 = conditions: MDA-MB-468, 144 hours
Method: as §1, §2

HCT15 = conditions: HCT15, 144 hours
Method: as §1, §2

Calu-3 = conditions: Calu-3, 144 hours
Method: as §1, §2

NCI-N87 = conditions: NCI-N87, 144 hours
Method: as §1, §2

SNU-620 = conditions: SNU-620, 144 hours
Method: as §1, §2

Calu-1 = conditions: Calu-1, 144 hours
Method: as §1, §2

BxPC-3 = conditions: BxPC-3, 144 hours
Method: as §1, §2

HCC827 = conditions: HCC827, 144 hours
Method: as §1, §2

JIMT-1 = conditions: JIMT-1, 144 hours
Method: as §1, §2

OVCAR-3 = conditions: OVCAR-3, 144 hours
Method: as §1, §2

COLO205 = conditions: COLO205, 144 hours
Method: as §1, §2

DLD-1 = conditions: DLD-1, 144 hours
Method: as §1, §2

PC-3 = conditions: PC-3, 144 hours
Method: as §1, §2

Capan-1 = conditions: Capan-1, 144 hours
Method: as §1, §2

| Compound | CC50 (HT29) | CC50 (NCI-H1781) | CC50 (SNU-601) | CC50 (SW480) | CC50 (LNCaP) | CC50 (Patu8988S) | CC50 (MDA-MB-468) | CC50 (HCT15) | CC50 (Calu-3) | CC50 (NCI-N87) | CC50 (SNU-620) | CC50 (Calu-1) | CC50 (BxPC-3) | CC50 (HCC827) | CC50 (JIMT-1) | CC50 (OVCAR-3) | CC50 (COLO205) | CC50 (DLD-1) | CC50 (PC-3) | CC50 (Capan-1) |
| --- | --- | --- | --- | --- | --- | --- | --- | --- | --- | --- | --- | --- | --- | --- | --- | --- | --- | --- | --- | --- |
| CC[C@H](C)[C@@H]([C@@H](CC(=O)N1CCC[C@H]1[C@H](OC)[C@@H](C)C(=O)N[C@H](C)[C@@H](O)c1ccccc1)OC)N(C)C(=O)[C@@H](NC(=O)[C@@H](NC)C(C)C)C(C)C [MMAE, monomethyl auristatin E] (H-[NMeV]V[Dil][Dolaproine]-X1) | 0.33 nM | 0.208 nM | 0.268 nM | 3.83 nM | 0.551 nM | 0.334 nM | 0.64 nM | 3.87 nM | 0.4 nM | 0.725 nM | 0.651 nM | 0.971 nM | 0.606 nM | 0.674 nM | 0.154 nM | 0.304 nM | 0.628 nM | 8.88 nM | 0.946 nM | 0.52 nM |
| C=C1C[C@H]2C=Nc3cc(OCCCCCOc4cc5c(cc4OC)C(=O)N4CC(=C)C[C@H]4C=N5)c(OC)cc3C(=O)N2C1 [SG2057] | 0.02 nM | – | – | – | – | – | – | 0.161 nM | – | – | – | – | – | – | – | – | – | 0.05 nM | – | – |
